# According to patent US20130143929A1, “FUNGICIDAL IMIDAZOLES” (EI DU PONT DE NEMOURS AND COMPANY, priority 2010, published 2013):
# Marks after values point to notes of the source that are not given here.
# Legend:
# Assay type in all cases: in vivo
# [1] = test system: Septoria tritici (the causal agent of wheat leaf blotch); assay: Test B: wheat leaf blotch, preventive spray on wheat seedlings, visual disease rating; conditions: wheat leaf blotch, preventive spray on wheat seedlings
# Method in brief: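 Wheat seedlings sprayed to run-off with compound suspension (acetone/water with 250 ppm Trem 014; 200 ppm ≈ 800 g/ha, some at 40 ppm), inoculated next day with Septoria tritici spores. 48 h saturated humidity at 24 °C, then 19 days at 20 °C; visual rating, 100 = full control.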
# [2] = test system: Blumeria graminis f. sp. tritici (also known as Erysiphe graminis f. sp. tritici, the causal agent of wheat powdery mildew); assay: Test D: wheat powdery mildew, preventive spray on wheat seedlings, visual disease rating; conditions: wheat powdery mildew, preventive spray on wheat seedlings
# Method in brief: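 Compound suspended in acetone/water (50/50) with 250 ppm Trem 014 and sprayed to run-off on wheat seedlings (200 ppm ≈ 800 g/ha), then inoculated next day with spore dust. Disease rated visually after 8 days at 20 °C as % control relative to untreated plants (0-100).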
# [3] = test system: Botrytis cinerea (the causal agent of tomato Botrytis); assay: Test C: tomato Botrytis, preventive spray on tomato seedlings, visual disease rating; conditions: tomato Botrytis, preventive spray on tomato seedlings
# Method in brief: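 Test suspension (acetone/water with 250 ppm Trem 014; 200 ppm equivalent to 800 g/ha) sprayed to run-off on tomato seedlings; B. cinerea spores inoculated next day. After 48 h saturated humidity at 20° C then 3 days at 24° C, disease rated visually as % control relative to untreated controls (0–100).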
# [4] = test system: Puccinia recondite f. sp. tritici (the causal agent of wheat leaf rust); assay: Test A: wheat leaf rust, preventive spray on wheat seedlings, visual disease rating; conditions: wheat leaf rust, preventive spray on wheat seedlings
# Method in brief: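 Wheat seedlings were sprayed to run-off with compound suspended in acetone/water containing 250 ppm Trem 014 (200 ppm ≈ 800 g/ha; some at 40 ppm). Puccinia recondite spores were inoculated the next day. Plants were held 24 h saturated at 20° C, then 7 days at 20° C, and disease control was rated visually on a 0–100 scale against controls.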
# [5] = no asterisk (standard test suspension concentration, not 40 ppm)
# [6] = asterisk: 40 ppm test suspension
SMILES,"Test B rating (100 = 100% disease control, 0 = no disease control relative to the controls) [1, 5]","Test D rating (100 = 100% disease control, 0 = no disease control relative to the controls) [2, 5]","Test C rating (100 = 100% disease control, 0 = no disease control relative to the controls) [3, 5]","Test A rating (100 = 100% disease control, 0 = no disease control relative to the controls) [4, 5]","Test B rating (100 = 100% disease control, 0 = no disease control relative to the controls) [1, 6]","Test D rating (100 = 100% disease control, 0 = no disease control relative to the controls) [2, 6]","Test C rating (100 = 100% disease control, 0 = no disease control relative to the controls) [3, 6]","Test A rating (100 = 100% disease control, 0 = no disease control relative to the controls) [4, 6]"
OC(c1ccc(F)cc1Br)c1cnc(C2CC2)n1-c1c(F)cccc1Br (stereo not drawn) [compound 95],0%,0%,0%,0%,,,,
OC(c1ccc(F)cc1F)c1c(Br)ncn1-c1c(F)cccc1F (stereo not drawn) [compound 96],,,,,100* %,0* %,40* %,68* %
Cc1ncc(C(O)c2ccc(F)cc2F)n1-c1c(F)cccc1F (stereo not drawn) [compound 97],,,,,100* %,0* %,0* %,95* %
Cc1nc(Cl)c(C(O)c2ccc(F)cc2Cl)n1-c1c(F)cccc1F (stereo not drawn) [compound 98],,,,,100* %,99* %,100* %,100* %
Cc1nc(Br)c(C(O)c2ccc(F)cc2Cl)n1-c1c(F)cccc1F (stereo not drawn) [compound 99],,,,,100* %,98* %,99* %,100* %
Cc1nc(Cl)c(C(O)c2c(F)cc(F)cc2F)n1-c1c(F)cccc1F (stereo not drawn) [compound 100],,,,,100* %,82* %,97* %,100* %
Cc1cc(F)ccc1C(O)c1c(C)nc(Cl)n1-c1ccc(F)cc1F (stereo not drawn) [compound 104],100%,97%,99%,100%,,,,
Cc1nc(Cl)c(C(O)c2c(F)cccc2F)n1-c1c(F)cccc1F (stereo not drawn) [compound 105],,,,,100* %,64* %,85* %,99* %
Cc1nc(Br)c(C(O)c2c(F)cccc2F)n1-c1c(F)cccc1F (stereo not drawn) [compound 106],,,,,100* %,43* %,91* %,99* %
OC(c1ccc(F)cc1F)c1c(Br)nc(Br)n1-c1c(F)cc(F)cc1Cl (stereo not drawn) [compound 107],100%,94%,100%,100%,,,,
OC(c1ccc(F)cc1F)c1c(Br)nc(Cl)n1-c1c(F)cc(F)cc1Cl (stereo not drawn) [compound 108],,,,,100* %,99* %,67* %,100* %
Cc1cc(F)ccc1C(O)c1cnc(C)n1-c1c(F)cc(Cl)cc1F (stereo not drawn) [compound 109],,,,,94* %,0* %,0* %,99* %
Cc1cc(F)ccc1C(O)c1c(Br)nc(C)n1-c1c(F)cc(Cl)cc1F (stereo not drawn) [compound 110],,,,,100* %,0* %,0* %,96* %
Cc1cc(F)ccc1C(O)c1c(Cl)nc(C)n1-c1c(F)cc(Cl)cc1F (stereo not drawn) [compound 111],,,,,100* %,0* %,0* %,98* %
Cc1ncc(C(O)c2ccc(Cl)cc2Cl)n1-c1c(F)cc(Cl)cc1F (stereo not drawn) [compound 112],,,,,100* %,0* %,0* %,74* %
Cc1nc(Br)c(C(O)c2ccc(Cl)cc2Cl)n1-c1c(F)cc(Cl)cc1F (stereo not drawn) [compound 113],,,,,100* %,0* %,0* %,95* %
Cc1nc(Cl)c(C(O)c2ccc(Cl)cc2Cl)n1-c1c(F)cc(Cl)cc1F (stereo not drawn) [compound 114],,,,,100* %,0* %,0* %,99* %
Cc1ncc(C(O)c2ccc(F)cc2Cl)n1-c1c(F)cc(Cl)cc1F (stereo not drawn) [compound 115],,,,,96* %,0* %,97* %,100* %
